# Measurements: PubChem BioAssay (NCI)
#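 Where inhibition never reached the appropriate level, the endpoint shown equals the highest concentration tested. Otherwise, values were interpolated linearly from a five-concentration, 48-hour dose response in 96-well plates. GI50 = concentration required for 50% inhibition of growth. TGI: total growth inhibition.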
# How the values were obtained:
# Experiment in all cases: NCI-60 cell line screen, 48 h
# 786-0 renal = system: 786-0 renal
# A498 renal = system: A498 renal
# A549 NSCLC = system: A549 NSCLC
# ACHN renal = system: ACHN renal
# BT-549 breast = system: BT-549 breast
# CAKI-1 renal = system: CAKI-1 renal
# CCRF-CEM leukemia = system: CCRF-CEM leukemia
# COLO 205 colon = system: COLO 205 colon
# DU-145 prostate = system: DU-145 prostate
# HCC-2998 colon = system: HCC-2998 colon
# HCT-116 colon = system: HCT-116 colon
# HCT-15 colon = system: HCT-15 colon
# HL-60(TB) leukemia = system: HL-60(TB) leukemia
# HOP-62 NSCLC = system: HOP-62 NSCLC
# HOP-92 NSCLC = system: HOP-92 NSCLC
# HS 578T breast = system: HS 578T breast
# HT29 colon = system: HT29 colon
# IGROV1 ovarian = system: IGROV1 ovarian
# K-562 leukemia = system: K-562 leukemia
# KM12 colon = system: KM12 colon
# LOX IMVI melanoma = system: LOX IMVI melanoma
# M14 melanoma = system: M14 melanoma
# MALME-3M melanoma = system: MALME-3M melanoma
# MCF7 breast = system: MCF7 breast
# MDA-MB-231 breast = system: MDA-MB-231 breast
# MDA-MB-435 = system: MDA-MB-435
# MOLT-4 leukemia = system: MOLT-4 leukemia
# NCI-H226 lung = system: NCI-H226 lung
smiles,measurement,setting,value
COc1ccc(OC)c(N(CCN2C(=O)c3ccccc3C2=O)C(=O)CCl)c1,GI50,786-0 renal,0.901 µM
same,TGI,786-0 renal,3.1 µM
same,GI50,A498 renal,6.81 µM
same,TGI,A498 renal,25.4 µM
same,GI50,A549 NSCLC,9.35 µM
same,TGI,A549 NSCLC,44.7 µM
same,GI50,ACHN renal,0.831 µM
same,TGI,ACHN renal,4.85 µM
same,GI50,BT-549 breast,17.9 µM
same,TGI,BT-549 breast,46.7 µM
same,GI50,CAKI-1 renal,0.482 µM
same,TGI,CAKI-1 renal,2 µM
same,GI50,CCRF-CEM leukemia,0.229 µM
same,TGI,CCRF-CEM leukemia,0.542 µM
same,GI50,COLO 205 colon,13.5 µM
same,TGI,COLO 205 colon,29.3 µM
same,GI50,DU-145 prostate,6.09 µM
same,TGI,DU-145 prostate,37.7 µM
same,GI50,HCC-2998 colon,20.4 µM
same,TGI,HCC-2998 colon,56 µM
same,GI50,HCT-116 colon,17.7 µM
same,TGI,HCT-116 colon,59.5 µM
same,GI50,HCT-15 colon,11.6 µM
same,TGI,HCT-15 colon,> 54.6 µM
same,GI50,HL-60(TB) leukemia,0.202 µM
same,TGI,HL-60(TB) leukemia,0.411 µM
same,GI50,HOP-62 NSCLC,0.379 µM
same,TGI,HOP-62 NSCLC,1.97 µM
same,GI50,HOP-92 NSCLC,0.181 µM
same,TGI,HOP-92 NSCLC,0.48 µM
same,GI50,HS 578T breast,13.7 µM
same,TGI,HS 578T breast,68.9 µM
same,GI50,HT29 colon,0.497 µM
same,TGI,HT29 colon,2.15 µM
same,GI50,IGROV1 ovarian,0.121 µM
same,TGI,IGROV1 ovarian,0.299 µM
same,GI50,K-562 leukemia,21.3 µM
same,TGI,K-562 leukemia,> 70.4 µM
same,GI50,KM12 colon,0.617 µM
same,TGI,KM12 colon,5.17 µM
same,GI50,LOX IMVI melanoma,0.191 µM
same,TGI,LOX IMVI melanoma,0.406 µM
same,GI50,M14 melanoma,24.6 µM
same,TGI,M14 melanoma,> 100 µM
same,GI50,MALME-3M melanoma,0.706 µM
same,TGI,MALME-3M melanoma,3.16 µM
same,GI50,MCF7 breast,14.2 µM
same,TGI,MCF7 breast,43 µM
same,GI50,MDA-MB-231 breast,1.24 µM
same,TGI,MDA-MB-231 breast,7.51 µM
same,GI50,MDA-MB-435,15.6 µM
same,TGI,MDA-MB-435,66.7 µM
same,GI50,MOLT-4 leukemia,10.3 µM
same,TGI,MOLT-4 leukemia,37.7 µM
same,GI50,NCI-H226 lung,30.9 µM
same,TGI,NCI-H226 lung,> 89.2 µM
